Test results as given in ChEMBL document CHEMBL1201862, “PubChem BioAssay data set” (2004).
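Each compound was tested at five concentrations against cells in 96-well plates for 48 hours. Here, GI50 denotes the concentration required for 50% inhibition of growth.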 Calls of active or inactive are those of the source. Cut-off read from the data, not from the text of the source: active = GI50 up to about 1.1 µM and inactive = higher.

How the values were obtained:
Assay in all cases: NCI anticancer screen, dose series, 48 h
[1] = test system: A498
[2] = test system: ACHN
[3] = test system: BT-549
[4] = test system: CAKI-1
[5] = test system: CCRF-CEM
[6] = test system: EKVX
[7] = test system: HCC 2998
[8] = test system: HCT-15
[9] = test system: HL-60
[10] = test system: HOP-92
[11] = test system: KM12
[12] = test system: MDA-MB-231
[13] = test system: MDA-MB-435
[14] = test system: MDA-N
[15] = test system: MOLT-4
[16] = test system: NCI-H226
[17] = test system: NCI-H23
[18] = test system: NCI-H460
[19] = test system: NCI/ADR-RES
[20] = test system: OVCAR-4
[21] = test system: OVCAR-8
[22] = test system: RPMI-8226
[23] = test system: SF-268
[24] = test system: SK-MEL-28
[25] = test system: SN12C
[26] = test system: SNB-19
[27] = test system: SNB-75
[28] = test system: SR
[29] = test system: TK-10
[30] = test system: U-251
[31] = test system: UACC-257
[32] = test system: UACC-62
[33] = test system: UO-31
[34] = test system: 786-0
[35] = test system: A549
[36] = test system: COLO 205
[37] = test system: DU-145
[38] = test system: HCT-116
[39] = test system: IGROV-1
[40] = test system: K562
[41] = test system: LOX IMVI
[42] = test system: M14
[43] = test system: MCF7
[44] = test system: Malme-3M
[45] = test system: NCI-H522
[46] = test system: OVCAR-3
[47] = test system: OVCAR-5
[48] = test system: PC-3
[49] = test system: RXF 393
[50] = test system: SF-295
[51] = test system: SF-539
[52] = test system: SK-MEL-2
[53] = test system: SK-MEL-5
[54] = test system: SK-OV-3
[55] = test system: SW-620
[56] = test system: HOP-62
[57] = test system: HT-29
[58] = test system: Hs-578T

In the case of `CC1(C)/C(=N\O)C2(OS(=O)(=O)C(F)(F)F)CCC1C2` (stereo not given), the GI50 [1] was > 100 µM (inactive), the GI50 [2] was > 100 µM (inactive) and the GI50 [3] was > 100 µM (inactive). For the same molecule, the GI50 [4] was > 100 µM (inactive), the GI50 [5] was > 100 µM (inactive) and the GI50 [6] was > 100 µM (inactive). The GI50 [7] was > 100 µM (inactive), the GI50 [8] was greater than 100 µM and the GI50 [9] was 12 µM (inactive). For the same molecule, the GI50 [10] was > 100 µM (inactive), the GI50 [11] was > 100 µM (inactive) and the GI50 [12] was > 100 µM (inactive). For the same molecule, the GI50 [13] was 60.1 µM (inactive), the GI50 [14] was > 100 µM (inactive) and the GI50 [15] was > 100 µM (inactive). For the same molecule, the GI50 [16] was 70.8 µM (inactive), the GI50 [17] was > 100 µM (inactive) and the GI50 [18] was > 100 µM (inactive). The GI50 [19] was > 100 µM (inactive), the GI50 [20] was > 100 µM (inactive) and the GI50 [21] was > 100 µM (inactive). For the same molecule, the GI50 [22] was 27.4 µM (inactive), the GI50 [23] was > 100 µM (inactive) and the GI50 [24] was > 100 µM (inactive). The GI50 [25] was > 100 µM (inactive), the GI50 [26] was > 100 µM (inactive) and the GI50 [27] was > 100 µM (inactive). The GI50 [28] was 55.1 µM (inactive), the GI50 [29] was > 100 µM (inactive) and the GI50 [30] was > 100 µM (inactive). The GI50 [31] was > 100 µM (inactive), the GI50 [32] was > 100 µM (inactive) and the GI50 [33] was > 100 µM (inactive).

With `CC(C)CC(NC(=O)C(COc1ccc([N+](=O)[O-])cc1)Cc1ccccc1)C(=O)Nc1ccccc1` (stereo not given) the GI50 [34] was 7.08 µM (inactive), the GI50 [1] was 24 µM (inactive) and the GI50 [35] was 16.1 µM (inactive). For the same molecule, the GI50 [2] was 16.8 µM (inactive), the GI50 [3] was 10.9 µM (inactive) and the GI50 [4] was 28.2 µM (inactive). For the same molecule, the GI50 [5] was 7.26 µM (inactive), the GI50 [36] was 9.04 µM (inactive) and the GI50 [37] was > 100 µM (inactive). For the same molecule, the GI50 [6] was 23.6 µM (inactive), the GI50 [7] was 13.1 µM (inactive) and the GI50 [38] was 22.2 µM (inactive). For the same molecule, the GI50 [8] was 13.3 µM, the GI50 [9] was 10.3 µM (inactive) and the GI50 [10] was 13.3 µM (inactive). For the same molecule, the GI50 [39] was 7.8 µM (inactive), the GI50 [40] was 19.2 µM (inactive) and the GI50 [11] was 5.85 µM (inactive). For the same molecule, the GI50 [41] was 48.6 µM (inactive), the GI50 [42] was 9.53 µM (inactive) and the GI50 [43] was 25.8 µM (inactive). The GI50 [12] was 21.1 µM (inactive), the GI50 [13] was 14.1 µM (inactive) and the GI50 [14] was 10.3 µM (inactive). For the same molecule, the GI50 [15] was 22.1 µM (inactive), the GI50 [44] was 5.02 µM (inactive) and the GI50 [16] was 3.44 µM (inactive). The GI50 [17] was 13 µM (inactive), the GI50 [18] was 4.29 µM (inactive) and the GI50 [45] was 12.5 µM (inactive). For the same molecule, the GI50 [19] was 12.7 µM (inactive), the GI50 [46] was 41.1 µM (inactive) and the GI50 [20] was 2.35 µM (inactive). The GI50 [47] was 40.3 µM (inactive), the GI50 [21] was 6.98 µM (inactive) and the GI50 [48] was 38.7 µM (inactive). For the same molecule, the GI50 [22] was 40.5 µM (inactive), the GI50 [49] was 16.3 µM (inactive) and the GI50 [50] was 11.2 µM (inactive). For the same molecule, the GI50 [51] was 6.68 µM (inactive), the GI50 [52] was 21.7 µM (inactive) and the GI50 [53] was 7.83 µM (inactive). The GI50 [54] was 13.8 µM (inactive), the GI50 [25] was 37.5 µM (inactive) and the GI50 [26] was 7.76 µM (inactive). For the same molecule, the GI50 [27] was 2.38 µM (inactive), the GI50 [28] was 41.5 µM (inactive) and the GI50 [55] was 24.3 µM (inactive). For the same molecule, the GI50 [29] was 11.5 µM (inactive), the GI50 [30] was 12.6 µM (inactive) and the GI50 [31] was 25.7 µM (inactive). For the same molecule, the GI50 [32] was 11.1 µM (inactive) and the GI50 [33] was 7 µM (inactive).

With `O=C(O)CCC(NC(=O)c1ccc(CNc2nc3ccccc3nc2C(=O)O)cc1)C(=O)O` (stereo not given) the GI50 [34] was > 100 µM (inactive), the GI50 [1] was > 100 µM (inactive) and the GI50 [35] was > 100 µM (inactive). The GI50 [2] was > 100 µM (inactive), the GI50 [5] was > 100 µM (inactive) and the GI50 [36] was > 100 µM (inactive). The GI50 [37] was > 100 µM (inactive), the GI50 [6] was > 100 µM (inactive) and the GI50 [38] was > 100 µM (inactive). For the same molecule, the GI50 [8] was greater than 100 µM, the GI50 [56] was > 100 µM (inactive) and the GI50 [57] was > 100 µM (inactive). The GI50 [58] was > 100 µM (inactive), the GI50 [39] was > 100 µM (inactive) and the GI50 [40] was > 100 µM (inactive). The GI50 [11] was > 100 µM (inactive), the GI50 [41] was > 100 µM (inactive) and the GI50 [42] was > 100 µM (inactive). For the same molecule, the GI50 [43] was > 100 µM (inactive), the GI50 [12] was > 100 µM (inactive) and the GI50 [13] was > 100 µM (inactive). The GI50 [14] was > 100 µM (inactive), the GI50 [15] was > 100 µM (inactive) and the GI50 [44] was > 100 µM (inactive). The GI50 [16] was > 100 µM (inactive), the GI50 [17] was > 100 µM (inactive) and the GI50 [19] was > 100 µM (inactive). The GI50 [46] was > 100 µM (inactive), the GI50 [20] was > 100 µM (inactive) and the GI50 [47] was > 100 µM (inactive). For the same molecule, the GI50 [21] was > 100 µM (inactive), the GI50 [48] was > 100 µM (inactive) and the GI50 [22] was > 100 µM (inactive). The GI50 [23] was > 100 µM (inactive), the GI50 [50] was > 100 µM (inactive) and the GI50 [24] was > 100 µM (inactive). For the same molecule, the GI50 [52] was > 100 µM (inactive), the GI50 [53] was > 100 µM (inactive) and the GI50 [54] was > 100 µM (inactive). The GI50 [25] was > 100 µM (inactive), the GI50 [26] was > 100 µM (inactive) and the GI50 [27] was > 100 µM (inactive). The GI50 [28] was > 100 µM (inactive), the GI50 [55] was > 100 µM (inactive) and the GI50 [29] was > 100 µM (inactive). For the same molecule, the GI50 [30] was > 100 µM (inactive), the GI50 [31] was > 100 µM (inactive) and the GI50 [32] was > 100 µM (inactive). The GI50 [33] was > 100 µM (inactive).
